Test system: hepatocytes
Test: Seq-Well scRNA-Seq of hepatocytes after APAP overdose (signature scores, DEG vs untreated)
Type: in vivo, mouse

## CC(=O)Nc1ccc(O)cc1 [APAP, acetaminophen]
APAP vs. UT
  mt-Co2 pct.1: 0.157
  mt-Co3 avg_logFC: −0.9584
  mt-Co3 pct.1: 0.198
  mt-Cytb avg_logFC: −0.8775
  mt-Cytb pct.1: 0.971
  mt-Nd1 avg_logFC: −0.76
  mt-Nd1 pct.1: 0.978
  mt-Nd2 avg_logFC: −0.8325
  mt-Nd2 pct.1: 0.978
  mt-Nd4 avg_logFC: −1.116
  mt-Nd4 pct.1: 0.942
  mt-Nd5 avg_logFC: −0.7797
  mt-Nd5 pct.1: 0.942
  mt-Rnr1 avg_logFC: −0.3538
  mt-Rnr1 pct.1: 1
  mt-Rnr2 avg_logFC: −0.5458
  mt-Rnr2 pct.1: 1
  n-R5-8s1 avg_logFC: 0.6965
  n-R5-8s1 pct.1: 0.268
Cluster A6 (APAP 6 hr)
  1700017B05Rik avg_logFC: 0.2894
  1700017B05Rik pct.1: 0.255
  2010003K11Rik avg_logFC: 0.4872
  2010003K11Rik pct.1: 0.396
  Abca1 avg_logFC: 0.5058
  Abca1 pct.1: 0.604
  Abhd2 avg_logFC: 0.3593
  Abhd2 pct.1: 0.37
  Agpat9 avg_logFC: 0.2968
  Agpat9 pct.1: 0.277
  Alb avg_logFC: 0.4181
  Alb pct.1: 1
  Apoa4 avg_logFC: 0.945
  Apoa4 pct.1: 0.721
  Apob avg_logFC: 0.3564
  Apob pct.1: 0.99
  Apobec1 avg_logFC: 0.2824
  Apobec1 pct.1: 0.239
  App avg_logFC: 0.3291
  App pct.1: 0.315
  Asl avg_logFC: 0.434
  Asl pct.1: 0.826
  B4galt5 avg_logFC: 0.402
  B4galt5 pct.1: 0.332
  Bach1 avg_logFC: 0.6724
  Bach1 pct.1: 0.461
  Bcl2l1 avg_logFC: 0.6863
  Bcl2l1 pct.1: 0.501
  Btg1 avg_logFC: 0.4265
  Btg1 pct.1: 0.356
  Btg2 avg_logFC: 0.5388
  Btg2 pct.1: 0.549
  C1qa avg_logFC: 0.471
  C1qa pct.1: 0.174
  C1qb avg_logFC: 0.5946
  C1qb pct.1: 0.234
  C1qc avg_logFC: 0.5477
  C1qc pct.1: 0.172
  C230081A13Rik avg_logFC: 0.4148
  C230081A13Rik pct.1: 0.279
  Ccl6 avg_logFC: 0.7552
  Ccl6 pct.1: 0.274
  Cd5l avg_logFC: 0.5663
  Cd5l pct.1: 0.21
  Cd14 avg_logFC: 0.3587
  Cd14 pct.1: 0.153
  Cd44 avg_logFC: 0.2929
  Cd44 pct.1: 0.115
  Cd53 avg_logFC: 0.2561
  Cd53 pct.1: 0.103
  Cd74 avg_logFC: 0.4419
  Cd74 pct.1: 0.155
  Cd97 avg_logFC: 0.3303
  Cd97 pct.1: 0.115
  Cd163 avg_logFC: 0.4066
  Cd163 pct.1: 0.146
  Cdkn1a avg_logFC: 1.099
  Cdkn1a pct.1: 0.702
  Cers6 avg_logFC: 0.4774
  Cers6 pct.1: 0.332
  Ces1d avg_logFC: 0.3854
  Ces1d pct.1: 0.859
  Cfp avg_logFC: 0.3251
  Cfp pct.1: 0.143
  Chic2 avg_logFC: 0.39
  Chic2 pct.1: 0.37
  Chka avg_logFC: 1.387
  Chka pct.1: 0.716
  Cidec avg_logFC: 0.3068
  Cidec pct.1: 0.253
  Clec4f avg_logFC: 0.9909
  Clec4f pct.1: 0.339
  Clec4d avg_logFC: 0.2622
  Clec4d pct.1: 0.107
  Cltc avg_logFC: 0.6346
  Cltc pct.1: 0.661
  Creb3l2 avg_logFC: 0.3363
  Creb3l2 pct.1: 0.329
  Ctsl avg_logFC: 0.4384
  Ctsl pct.1: 0.878
  Ctss avg_logFC: 0.7031
  Ctss pct.1: 0.212
  Cxadr avg_logFC: 0.6184
  Cxadr pct.1: 0.606
  Cyp4a14 avg_logFC: 0.5996
  Cyp4a14 pct.1: 0.776
  D10Wsu102e avg_logFC: 0.5134
  D10Wsu102e pct.1: 0.37
  Ddx3x avg_logFC: 0.4893
  Ddx3x pct.1: 0.692
  Ddx5 avg_logFC: 0.4732
  Ddx5 pct.1: 0.685
  Ddx21 avg_logFC: 0.6398
  Dgkd avg_logFC: 0.3462
  Dgkd pct.1: 0.282
  Dkc1 avg_logFC: 0.3232
  Dkc1 pct.1: 0.315
  Dot1l avg_logFC: 0.3695
  Dot1l pct.1: 0.282
  Dusp5 avg_logFC: 0.2889
  Dusp5 pct.1: 0.196
  Dusp6 avg_logFC: 0.4768
  Dusp6 pct.1: 0.482
  Dusp16 avg_logFC: 0.4153
  Dusp16 pct.1: 0.372
  Eaf1 avg_logFC: 0.5066
  Eaf1 pct.1: 0.427
  Efhd2 avg_logFC: 0.5545
  Efhd2 pct.1: 0.468
  Eif1a avg_logFC: 0.6585
  Eif1a pct.1: 0.599
  Eif4g2 avg_logFC: 0.3399
  Eif4g2 pct.1: 0.757
  Epas1 avg_logFC: 0.6264
  Epas1 pct.1: 0.604
  Etf1 pct.1: 0.606
  Etnppl avg_logFC: 0.4038
  Etnppl pct.1: 0.706
  Ets2 avg_logFC: 0.6277
  Ets2 pct.1: 0.415
  Fam107b avg_logFC: 0.4224
  Fam107b pct.1: 0.449
  Fam134b avg_logFC: 0.6202
  Fam134b pct.1: 0.678
  Fcgr3 avg_logFC: 0.294
  Fcgr3 pct.1: 0.107
  Fcna avg_logFC: 0.3469
  Fcna pct.1: 0.124
  Fxyd5 avg_logFC: 0.2697
  Fxyd5 pct.1: 0.138
  Gclc avg_logFC: 1.893
  Gclc pct.1: 0.962
  Gcnt2 avg_logFC: 0.4614
  Gcnt2 pct.1: 0.372
  Gm10800 avg_logFC: 0.5383
  Gm10800 pct.1: 0.115
  Gm15564 avg_logFC: 0.6079
  Gm15564 pct.1: 0.983
  Gm23388 avg_logFC: 0.4216
  Gm23388 pct.1: 0.222
  Gm24187 avg_logFC: 0.3969
  Gm24187 pct.1: 0.2
  Gm24245 avg_logFC: 0.5737
  Gm24245 pct.1: 0.422
  Gm26924 avg_logFC: 0.3029
  Gm26924 pct.1: 1
  Gnl3 avg_logFC: 0.477
  Gnl3 pct.1: 0.501
  Gpt2 avg_logFC: 0.3682
  Gpt2 pct.1: 0.764
  Gsta1 avg_logFC: 0.4204
  Gsta1 pct.1: 0.32
  Gtpbp4 avg_logFC: 0.4579
  Gtpbp4 pct.1: 0.477
  H2-Ab1 avg_logFC: 0.4491
  H2-Ab1 pct.1: 0.158
  H2-Eb1 avg_logFC: 0.3214
  H2-Eb1 pct.1: 0.105
  H3f3b avg_logFC: 0.5088
  H3f3b pct.1: 0.613
  Hba-a1 avg_logFC: 0.716
  Hba-a1 pct.1: 0.165
  Hba-a2 avg_logFC: 0.5328
  Hba-a2 pct.1: 0.131
  Heatr1 avg_logFC: 0.3433
  Heatr1 pct.1: 0.291
  Hic2 avg_logFC: 0.2673
  Hic2 pct.1: 0.15
  Hif1a avg_logFC: 0.4719
  Hif1a pct.1: 0.427
  Hilpda avg_logFC: 0.7698
  Hilpda pct.1: 0.403
  Hmox1 avg_logFC: 1.29
  Hmox1 pct.1: 0.558
  Hnf4a avg_logFC: 0.559
  Hnf4a pct.1: 0.835
  Hnrnpdl avg_logFC: 0.4137
  Hnrnpdl pct.1: 0.406
  Hsd17b13 avg_logFC: 0.5284
  Hsd17b13 pct.1: 0.864
  Ier5 avg_logFC: 0.2797
  Ier5 pct.1: 0.134
  Iigp1 avg_logFC: 0.6118
